Data published in patent US12202815B2, “Selective androgen receptor degrader (SARD) ligands and methods of use thereof” (priority 2018, dated 2025).
Several values for one entry are separate records, joined by “and”; a condition that tells them apart may be missing. Equal values may be shown once. Entries after “also recorded” stand apart in the source; their conditions may differ. Read-outs that look alike come from different tables or passages of the source.

Key:
[1] = format: in vitro ADME; details: human liver microsomes
Experimental: (§1) The assay was done in a final volume of 0.5 ml in duplicates (n=2). […] After pre-incubation, reaction was started by addition of 1 mM NADPH (pre-incubated at 37° C.). Incubations were carried out in triplicate and at various time-points (0, 5, 10, 15, 30 and 60 minutes) 100 μl aliquots were removed and quenched with 100 μl of acetonitrile containing internal standard. Samples were vortex mixed and centrifuged at 4000 rpm for 10 minutes. The supernatants were transferred to 96 well plates and submitted for LC-MS/MS analysis. As control, sample incubations done in absence of NADPH were included. From % PCR (% Parent Compound Remaining), rate of compound disappearance is determined (slope) and in vitro CLint (μl/min/mg protein) was calculated.

full length AR = experiment: LNCaP or AD1 degradation (AR FL), Western blot; format: cell-based
[2] = for metabolism (in words): data not shown
[3] = Pharmacokinetics in male Sprague Dawley rats (oral 7 days, iv Day 1)
Experimental: At initial dosing, the animals were 12 weeks of age. The animals were group housed (up to three animals/cage/group) in polycarbonate cages with hardwood chip bedding. […] Water was provided fresh daily, ad libitum. […] As necessary, the 12-hour dark cycle was interrupted to accommodate study procedures. […] Individual doses were calculated based on body weights recorded on Day 1 and Day 7 of dose administration. […] A single intravenous dose was administered via a tail vein and blood sample on Day 1.
Animals were weighed at the time of animal selection and on Day 1 and Day 7 of dose administration.
Centrifugation began within 1 hour of collection. Plasma was placed into 96-well tubes with barcode labels. Plasma was maintained on dry ice prior to storage at approximately −70° C. Drug concentrations were measured by established chromatography/mass spectrometry (LC-MS/MS) methods.

RLM metabolism half-life = format: in vitro ADME; details: rat liver microsomes
Experimental: as §1

[4] = for serum drug level (bioavailability): rats dosed at 20 mg/kg
in vivo = details: male, Sprague Dawley, rat, 20 mpk
[5] = High dose Hershberger experiment, 7 days oral; format: in vivo, Sprague Dawley rat; details: 100 mpk oral 7 days, individual animals
Experimental: Body weights were recorded on day 0 and day 7 (Table 4B). On day 7, animals were sacrificed and organs were observed.

AR = biological target: T1, AR (Rattus norvegicus, UniProt P15207); details: castrated rats, 20 mg/kg for 13 days
T1 sequence (P15207 1-902): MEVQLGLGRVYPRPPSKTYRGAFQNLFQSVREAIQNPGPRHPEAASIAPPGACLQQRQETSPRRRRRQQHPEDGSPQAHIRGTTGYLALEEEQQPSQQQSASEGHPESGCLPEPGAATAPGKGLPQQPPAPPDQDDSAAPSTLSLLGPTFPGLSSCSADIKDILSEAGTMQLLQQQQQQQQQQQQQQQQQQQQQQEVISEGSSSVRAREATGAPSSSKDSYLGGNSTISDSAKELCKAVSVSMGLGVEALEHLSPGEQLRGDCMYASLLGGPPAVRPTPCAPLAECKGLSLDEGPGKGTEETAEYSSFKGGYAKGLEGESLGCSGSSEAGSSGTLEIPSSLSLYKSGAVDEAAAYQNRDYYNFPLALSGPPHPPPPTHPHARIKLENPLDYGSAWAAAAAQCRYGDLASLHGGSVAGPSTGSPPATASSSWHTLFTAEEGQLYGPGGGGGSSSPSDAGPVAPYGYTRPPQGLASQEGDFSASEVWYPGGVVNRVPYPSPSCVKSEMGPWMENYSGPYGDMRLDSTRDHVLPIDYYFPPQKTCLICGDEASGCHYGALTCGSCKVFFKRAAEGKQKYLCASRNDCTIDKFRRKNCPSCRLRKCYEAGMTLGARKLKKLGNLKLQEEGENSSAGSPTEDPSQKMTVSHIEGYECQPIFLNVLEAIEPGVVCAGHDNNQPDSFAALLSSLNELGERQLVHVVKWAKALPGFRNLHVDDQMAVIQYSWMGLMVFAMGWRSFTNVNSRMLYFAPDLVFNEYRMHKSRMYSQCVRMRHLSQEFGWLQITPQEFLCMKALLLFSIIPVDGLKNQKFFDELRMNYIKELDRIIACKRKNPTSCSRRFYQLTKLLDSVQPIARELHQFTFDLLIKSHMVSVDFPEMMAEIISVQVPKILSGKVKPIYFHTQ
Text: One week after castration, the animals were randomized and dosed for 13 days p.o. as indicated below. Dosing solutions were be prepared in 20% DMSO+80% PEG. Body weights were be measured on day 1 and at the time of sacrifice. At sacrifice, prostate and seminal vesicles weights were taken.

[6] = Table 9, Group 3, oral 30 mg/kg
[7] = male, Sprague Dawley, rat, in vivo, iv, 5 mg/kg
[8] = male, Sprague Dawley, rat, in vivo, po, 5 mg/kg
[9] = male, Sprague Dawley, rat, in vivo, po, 20 mg/kg
[10] = male, Sprague Dawley, rat, in vivo, po, 30 mg/kg
[11] = male, Sprague Dawley, rat, in vivo, po, 60 mg/kg

C[C@](O)(Cn1ccc2cc(F)ccc21)C(=O)Nc1ccc(C#N)c(C(F)(F)F)c1 [Compound 11]
HLM Metabolism (H.L. min) [1]: 6 min
Degradation (% at 3 μM) (full length AR; 3 μM, Table 3): 60%

C[C@](O)(Cn1ccc2cc(F)ccc21)C(=O)Nc1cnc(C#N)c(C(F)(F)F)c1 [Compound 47, (S)—N-(6-Cyano-5-(trifluoromethyl)pyridin-3-yl)-3-(5-fluoro-1H-indol-1-yl)-2-hydroxy-2-methylpropanamide]
metabolism (in words) [2]: rapid metabolism

C[C@](O)(Cn1nc(F)c2cc(F)ccc21)C(=O)Nc1cnc(C#N)c(C(F)(F)F)c1 [Compound 99, (S)—N-(6-Cyano-5-(trifluoromethyl)pyridin-3-yl)-3-(3,5-difluoro-1H-indazol-1-yl)-2-hydroxy-2-methylpropanamide]
metabolism (in words) [2]: rapid metabolism

C[C@](O)(Cn1cc(F)cn1)C(=O)Nc1ccc(C#N)c(C(F)(F)F)c1 [Compound 1002]
HLM Metabolism (H.L. min) [1]: 82 min
DN AUC0-24 [3, 6]: 2070 (h * ng/mL)/(mg/kg)
DN Cmax [3, 6]: 111 (ng/mL)/(mg/kg)
AUC0-24 [3, 7]: 9580 ng·h/mL
AUC(0-inf) [3, 7]: 9600 ng·h/mL
AUC(0-t) [3, 7]: 9580 ng·h/mL
C0 [3, 7]: 2460 ng/mL
Cmax [3, 7]: 2290 ng/mL
DN AUC0-24 [3, 7]: 1920
Tmax [3, 7]: 0.083 h
Vd [3, 7]: 2.14 L/kg
clearance [3, 7]: 8.68 mL/min/kg
half-life ([3]; male, Sprague Dawley, rat, in vivo, iv, 5 mg/kg, elimination half-life): 2.6 h
half-life ([3]; male, Sprague Dawley, rat, in vivo, iv, 5 mg/kg, t1/2): 2.62 h
AUC0-24 [3, 8]: 6860 ng·h/mL
AUC(0-inf) [3, 8]: 7050 ng·h/mL
AUC(0-t) [3, 8]: 6860 ng·h/mL
Cmax [3, 8]: 526 ng/mL
DN AUC0-24 [3, 8]: 1370
Tmax [3, 8]: 1 h
half-life ([3]; male, Sprague Dawley, rat, in vivo, po, 5 mg/kg, t1/2): 4.87 h
AUC0-t [3, 9]: 37000 ng·h/mL
AUC(0-t) [3, 9]: 37000 ng·h/mL
Cmax [3, 9]: 2620 ng/mL
DN AUC0-24 [3, 9]: 1850
Tmax [3, 9]: 6 h
Cmax [3, 10]: 3330 ng/mL
Tmax [3, 10]: 12 h
AUC0-24 [3, 11]: 77500 ng·h/mL
AUC(0-t) [3, 11]: 77500 ng·h/mL
Cmax [3, 11]: 3800 ng/mL
DN AUC0-24 [3, 11]: 1290
Tmax [3, 11]: 1 h
RLM Metebolism (H.L. min) (RLM metabolism half-life): 78 min
serum drug level (bioavailability) [4]: 33 nM
concentration at 30 h (in vivo): 33 nM

C[C@](O)(Cn1cc(C(F)(F)F)cn1)C(=O)Nc1ccc(C#N)c(C(F)(F)F)c1 [Compound 1017]
HLM Metabolism (H.L. min) [1]: 400 min
DMPK (MLM) T1/2 (min) ([2]; MLM): Infinity
RLM Metebolism (H.L. min) (RLM metabolism half-life): 400 min

C[C@](O)(Cn1cc(F)cn1)C(=O)Nc1cnc(C#N)c(C(F)(F)F)c1 [Compound 1022]
HLM Metabolism (H.L. min) [1]: 108 min
RLM Metebolism (H.L. min) (RLM metabolism half-life): 146 min
Serum Conc. ([4]; Table 2, rats 20 mg/kg, 24-30 hours after last dose): 64 nM
Serum Conc. ([4]; Table 3, 20 mg/kg Hershberger): 64 nM
serum drug level (bioavailability) [4]: 64 nM
concentration at 30 h (in vivo): 64 nM

C[C@](O)(Cn1cc(-c2ccc(F)cc2)nn1)C(=O)Nc1ccc(C#N)c(C(F)(F)F)c1 [Compound 1045]
pharmacokinetic properties (in words) ([4]; 20 mg/kg Hershberger experiment): outstanding pharmacokinetic properties

C[C@](O)(Cn1cc(C#N)cn1)C(=O)Nc1ccc(C#N)c(C(F)(F)F)c1 [Compound 1048]
HLM Metabolism (H.L. min) [1]: 400 min
RLM Metebolism (H.L. min) (RLM metabolism half-life): 86 min

C[C@](O)(Cn1cc(Br)c(F)n1)C(=O)Nc1ccc(C#N)c(C(F)(F)F)c1 [Compound 1058]
HLM Metabolism (H.L. min) [1]: 138 min
decreased exposure at the same dose as 1065 ([3]; 20 mg/kg): 37%
DN AUC0-24 ([3]; Table 10, Group 1, oral 5 mg/kg/day): 5350 (h * ng/mL)/(mg/kg/day)
DN AUC0-24 ([3]; Table 10, Group 2, oral 10 mg/kg/day): 4460 (h * ng/mL)/(mg/kg/day)
DN AUC0-24 ([3]; Table 10, Group 3, oral 20 mg/kg/day): 3200 (h * ng/mL)/(mg/kg/day)
DN AUC0-24 ([3]; Table 10, Group 4, oral 30 mg/kg/day): 2380 (h * ng/mL)/(mg/kg/day)
DN AUC0-24 ([3]; Table 10, Group 5, iv 10 mg/kg Day 1): 4550 (h * ng/mL)/(mg/kg/day)
RLM Metebolism (H.L. min) (RLM metabolism half-life): 400 min
Body wt. on sac. day [5]: 430 g and 470 g
Day 0 body wt. [5]: 430 g and 472 g

C[C@](O)(Cn1cc(Cl)c(Br)n1)C(=O)Nc1ccc(C#N)c(C(F)(F)F)c1 [Compound 1066, (S)-3-(3-Bromo-4-chloro-1H-pyrazol-1-yl)-N-(4-cyano-3-(trifluoromethyl)phenyl)-2-hydroxy-2-methylpropanamide]
HLM Metabolism (H.L. min) [1]: 319 min
RLM Metebolism (H.L. min) (RLM metabolism half-life): 300 min

C[C@](O)(Cn1ncc(Cl)c1Br)C(=O)Nc1ccc(C#N)c(C(F)(F)F)c1 [Compound 1067, (S)-3-(5-Bromo-4-chloro-1H-pyrazol-1-yl)-N-(4-cyano-3-(trifluoromethyl)phenyl)-2-hydroxy-2-methylpropanamide]
SARD Activity Full Length % inhibition at 1 μM (full length AR; first value of the pair, 1 μM): 61%
SARD Activity Full Length % inhibition at 10 μM (full length AR; second value of the pair, 10 μM): 86%

C[C@](O)(COc1ccc(C#N)cc1)C(=O)Nc1ccc(C#N)c(C(F)(F)F)c1 [Enobosarm]
SV and VP re-growth, % of intact vehicle (AR): 50-60%
agonist activity in ventral prostate and seminal vesicles (in words) (AR; 20 mg/kg): partial agonist; also recorded: significant agonism
